In PubChem BioAssay (NCI):
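Compound exposure: 48 hours, 5 concentrations, 96-well plates. GI50: concentration for 50% inhibition of growth. The concentration for full growth arrest is given as TGI.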

test system: SF-268 CNS; experiment: NCI-60 cell line screen, 48 h

Compound | TGI [µM] | GI50 [µM]
COC(=O)C(=O)C(C(C)=O)C(=O)NCc1ccc(OC)c(OC)c1 (stereo unspecified) | > 100 | –
Nc1c(-c2ccccc2-c2c(N)[n+]([O-])c3ccccc3[n+]2[O-])[n+]([O-])c2ccccc2[n+]1[O-] | > 100 | –
CCOC(=O)NC(=O)c1cn(C(CC)COC(=O)NCCCCCCNC(=O)OCC(CC)n2cc(C(=O)NC(=O)OCC)c(=O)[nH]c2=O)c(=O)[nH]c1=O (stereo unspecified) | > 100 | –
O=C(CC(=O)C1CCOC1=O)C(=O)Nc1cccc(Cl)c1 (stereo unspecified) | > 100 | –
CCN1c2ccccc2-c2c3c1cc(C)cc3c1ccccc1[n+]2CC | 2.04 | –
Cc1cccc(C2=C/C(=C(\SS/C(C(=O)c3ccc(OCC(=O)O)c(Cl)c3Cl)=C3\C=C(c4cccc(C)c4)SS3)C(=O)c3ccc(OCC(=O)O)c(Cl)c3Cl)SS2)c1 | 39.6 | –
O=C(Cc1nc2c3c(ccc2[nH]c1=O)C(=O)c1ccccc1C3=O)C(=O)Nc1ccccc1[N+](=O)[O-] | 31.5 | –
CC1=C(C#N)C(=O)CC(c2ccc(Cl)cc2)N(C)N1 (stereo unspecified) | > 100 | –
Nc1nc(-c2ccc(Cl)c([N+](=O)[O-])c2)cs1 | > 100 | –
COc1cc(/C=C2\[C@H]3c4c(c(OC)c(C)c(OC)c4OC)CC(C(=O)N2Cc2ccccc2)N3C)c(OC)c(C)c1OC | 61.3 | –
CC1(C)CN=C(NN=C(/C=C/c2ccc(C(F)(F)F)cc2)/C=C/c2ccc(C(F)(F)F)cc2)NC1 | 3.12 | 1.51
CCCC/C(=C\C1=C(C)C(=O)C(OC)=C(OC)C1=O)C(=O)O | > 100 | > 100
COc1ccc(C(CC(=O)c2ccc3c(c2)OCO3)c2c(O)c3ccccc3oc2=O)cc1OC (stereo unspecified) | > 100 | –
O=C(N/C(=C\c1ccc([N+](=O)[O-])cc1)c1nc2ccccc2[nH]1)c1ccccc1 | > 100 | –
COC(=O)/C([Se]c1c(C)cc(C)cc1C)=C(/[Se]c1c(C)cc(C)cc1C)C(=O)OC | > 100 | –
NC(=O)C(=O)CC(=O)c1ccccc1NC1=CC(=O)C(=O)c2ccccc21 | > 85.7 | –
Cc1cc2c(c(C(N)=O)c1C)-c1ccccc1C2=O | > 100 | –
CCCC(=O)C1=C(O)C(Cc2c(O)c(C)c(O)c(C(=O)CCC)c2O)=C(O)C(C)(C)C1=O | > 50 | –
COC(=O)/C(=N/O)C(C(=O)C=C(C)C)C(=O)C(=O)Nc1nc2ccc([N+](=O)[O-])cc2s1 (stereo unspecified) | 99.2 | –
Cc1ccccc1C1=[N+]([O-])c2ccc(Cl)cc2C1=O | 33.1 | –
c1coc(-c2c3ccc(=[N+]4CCCCC4)cc-3oc3cc(N4CCCCC4)ccc23)c1 | 0.472 | 0.0667
Cc1[nH]c2ccccc2c1C1Cc2ccccc2N1C(=O)C#Cc1ccc([N+](=O)[O-])cc1 (stereo unspecified) | > 100 | –
CCC/C=C/C=C/C1CC(O)C(O)C(=O)C1CO (stereo unspecified) | > 100 | –
CCOC(=O)NC(=O)c1cn(C2CCCCC2)c(=O)[nH]c1=O | > 100 | –
Cn1c(=O)nc2n(-c3cc(C(F)(F)F)cc(C(F)(F)F)c3)c3ccccc3nc-2c1=O | > 100 | –

test system: HOP-92 NSCLC; experiment: NCI-60 cell line screen, 48 h

Compound | GI50 [µM] | TGI [µM]
O=C(O)c1cccc(COc2ccc([N+](=O)[O-])cc2Cl)c1 | 45.2 | > 100
Nc1ccccc1C(=O)/C=C/c1c(O)ccc2ccccc12 | – | > 100
CCC(C)(O)c1cnc(CC(C)C)c(=O)n1O (stereo unspecified) | – | > 100
CCC1CN2CCc3cc(OC)c(OC)cc3C2CC1CC1c2cc(OC)c(OC)cc2CCN1C(=O)C1CCCN1 (stereo unspecified) | – | > 100
CCOP(=O)(OCC)C(C(=O)OC)C(=O)C(=O)Nc1ccc(Cl)cc1Cl (stereo unspecified) | – | > 100
Cn1cc(-c2csc(-c3cn(CCCCN4CCCCC4)c4ccccc34)n2)c2cccnc21 | 1.32 | 2.7
CC(C)=C1CCC(CN(C)C)C1=O (stereo unspecified) | – | 40.6
COc1ccc(-c2cnnn2-c2nonc2-n2cccc2)cc1 | 0.437 | 43.9
COc1cccc(/C=N/[N-]C(=O)c2ccncc2)c1[O-].COc1cccc(/C=N/[N-]C(=O)c2ccncc2)c1[O-].[O]=[U](=[O])([OH2+])[OH2+] | 14.3 | 54.5
CC(C)(C)c1ccc2c(c1)S(=O)(=O)Nc1ccc(Cl)cc1NS(=O)(=O)c1cc(C(C)(C)C)ccc1OCCOCCOCCO2 | – | 72.7
O=C1c2ccccc2-c2c1c1ccccc1c(=O)n2CCN1CCNCC1 | 4.44 | 17.4
CCCc1cc(=O)n2c(C(=O)Nc3ccc(Cl)cc3C)c(C(=O)Nc3ccc(F)cc3)sc2n1 | 0.166 | 0.989
N#CC(=Nc1ccccc1N(C(=O)c1ccccc1)C(=O)c1ccccc1)c1ccccc1 | – | > 93.3
COc1c(C)n(CCO)ccc1=O | – | > 100
COC(=O)C(=O)C(C(C)=O)C(=O)NCc1ccc(OC)c(OC)c1 (stereo unspecified) | – | > 100
Nc1c(-c2ccccc2-c2c(N)[n+]([O-])c3ccccc3[n+]2[O-])[n+]([O-])c2ccccc2[n+]1[O-] | – | > 100
O=C(CC(=O)C1CCOC1=O)C(=O)Nc1cccc(Cl)c1 (stereo unspecified) | – | > 100
Cc1cccc(C2=C/C(=C(\SS/C(C(=O)c3ccc(OCC(=O)O)c(Cl)c3Cl)=C3\C=C(c4cccc(C)c4)SS3)C(=O)c3ccc(OCC(=O)O)c(Cl)c3Cl)SS2)c1 | – | 23.1
CC(=O)N1CCN(c2ccc(OCC3COC(Cn4ccnc4)(c4ccc(Cl)cc4Cl)O3)cc2)CC1 (stereo unspecified) | – | > 100

Compound | GI50 [µM] | TGI [µM]
O=C(Cc1nc2c3c(ccc2[nH]c1=O)C(=O)c1ccccc1C3=O)C(=O)Nc1ccccc1[N+](=O)[O-] | – | 38.5
CC1=C(C#N)C(=O)CC(c2ccc(Cl)cc2)N(C)N1 (stereo unspecified) | – | > 100
Nc1nc(-c2ccc(Cl)c([N+](=O)[O-])c2)cs1 | – | 74.6
COc1cc(/C=C2\[C@H]3c4c(c(OC)c(C)c(OC)c4OC)CC(C(=O)N2Cc2ccccc2)N3C)c(OC)c(C)c1OC | – | 49.9
CC1(C)CN=C(NN=C(/C=C/c2ccc(C(F)(F)F)cc2)/C=C/c2ccc(C(F)(F)F)cc2)NC1 | 1.1 | 2.54
CCCC/C(=C\C1=C(C)C(=O)C(OC)=C(OC)C1=O)C(=O)O | 23.5 | 86.7
COc1ccc(C(CC(=O)c2ccc3c(c2)OCO3)c2c(O)c3ccccc3oc2=O)cc1OC (stereo unspecified) | – | > 100
O=C(N/C(=C\c1ccc([N+](=O)[O-])cc1)c1nc2ccccc2[nH]1)c1ccccc1 | – | > 100
COC(=O)/C([Se]c1c(C)cc(C)cc1C)=C(/[Se]c1c(C)cc(C)cc1C)C(=O)OC | – | > 100
NC(=O)C(=O)CC(=O)c1ccccc1NC1=CC(=O)C(=O)c2ccccc21 | – | > 81.2
Cc1cc2c(c(C(N)=O)c1C)-c1ccccc1C2=O | – | > 100
CCCC(=O)C1=C(O)C(Cc2c(O)c(C)c(O)c(C(=O)CCC)c2O)=C(O)C(C)(C)C1=O | – | > 50
COC(=O)/C(=N/O)C(C(=O)C=C(C)C)C(=O)C(=O)Nc1nc2ccc([N+](=O)[O-])cc2s1 (stereo unspecified) | – | 42.8
Cc1ccccc1C1=[N+]([O-])c2ccc(Cl)cc2C1=O | – | 28
c1coc(-c2c3ccc(=[N+]4CCCCC4)cc-3oc3cc(N4CCCCC4)ccc23)c1 | 0.0502 | 0.19
CCC/C=C/C=C/C1CC(O)C(O)C(=O)C1CO (stereo unspecified) | – | > 100
CCOC(=O)NC(=O)c1cn(C2CCCCC2)c(=O)[nH]c1=O | – | > 100
Cn1c(=O)nc2n(-c3cc(C(F)(F)F)cc(C(F)(F)F)c3)c3ccccc3nc-2c1=O | – | > 100

test system: SR leukemia; experiment: NCI-60 cell line screen, 48 h

Compound | TGI [µM] | GI50 [µM]
Nc1ccccc1C(=O)/C=C/c1c(O)ccc2ccccc12 | > 100 | –
CCC(C)(O)c1cnc(CC(C)C)c(=O)n1O (stereo unspecified) | 62.6 | –
CCC1CN2CCc3cc(OC)c(OC)cc3C2CC1CC1c2cc(OC)c(OC)cc2CCN1C(=O)C1CCCN1 (stereo unspecified) | 85.1 | –
CC(C)=C1CCC(CN(C)C)C1=O (stereo unspecified) | 36.5 | –
COc1ccc(-c2cnnn2-c2nonc2-n2cccc2)cc1 | > 60.3 | 0.0451
COc1cccc(/C=N/[N-]C(=O)c2ccncc2)c1[O-].COc1cccc(/C=N/[N-]C(=O)c2ccncc2)c1[O-].[O]=[U](=[O])([OH2+])[OH2+] | > 100 | 3.37
COc1ccc(C(=O)c2cc(OC)c(OC)c(OC)c2)cc1OC | > 100 | –
CCCc1cc(=O)n2c(C(=O)Nc3ccc(Cl)cc3C)c(C(=O)Nc3ccc(F)cc3)sc2n1 | 3.75 | 0.943
N#CC(=Nc1ccccc1N(C(=O)c1ccccc1)C(=O)c1ccccc1)c1ccccc1 | 24.2 | –
COc1c(C)n(CCO)ccc1=O | > 100 | –
COC(=O)C(=O)C(C(C)=O)C(=O)NCc1ccc(OC)c(OC)c1 (stereo unspecified) | > 100 | –
Nc1c(-c2ccccc2-c2c(N)[n+]([O-])c3ccccc3[n+]2[O-])[n+]([O-])c2ccccc2[n+]1[O-] | 37.3 | –
CCN1c2ccccc2-c2c3c1cc(C)cc3c1ccccc1[n+]2CC | 5.21 | –
CC(=O)N1CCN(c2ccc(OCC3COC(Cn4ccnc4)(c4ccc(Cl)cc4Cl)O3)cc2)CC1 (stereo unspecified) | 66.5 | –
O=C(Cc1nc2c3c(ccc2[nH]c1=O)C(=O)c1ccccc1C3=O)C(=O)Nc1ccccc1[N+](=O)[O-] | 51.1 | –
CC1=C(C#N)C(=O)CC(c2ccc(Cl)cc2)N(C)N1 (stereo unspecified) | > 100 | –
COc1cc(/C=C2\[C@H]3c4c(c(OC)c(C)c(OC)c4OC)CC(C(=O)N2Cc2ccccc2)N3C)c(OC)c(C)c1OC | 74.4 | –
COC(=O)/C([Se]c1c(C)cc(C)cc1C)=C(/[Se]c1c(C)cc(C)cc1C)C(=O)OC | > 100 | –
CCCC(=O)C1=C(O)C(Cc2c(O)c(C)c(O)c(C(=O)CCC)c2O)=C(O)C(C)(C)C1=O | 40.3 | –
